# Source: patent US10562902B2, “IRAK4 inhibitor and use thereof” (BEIJING HANMI PHARMACEUTICAL CO., LTD., priority 2015, dated 2020)
# Biological target: IRAK4 kinase (Homo sapiens (Human), UniProt Q9NWZ3)
# Experiment: IRAK4 kinase activity inhibition assay
# Assay type: biochemical
# Conditions: ADP-Glo kinase assay, 10 μM ATP, MBP substrate
# Description: IRAK4 kinase (purchased from Life Technologies, Cat. No.: PR5612U) was diluted to 2 folds of the final concentration (the final concentration is […]) with reaction buffer (40 mM Tris-HC1, pH 7.5; 20 mM MgCl2; 0.1 mg/mL BSA; 1 mM DTT), and added to a 384-well plate at 5 μL/well. The test drugs were 10-fold serial diluted from 10 μM to set six concentration points and added to the test wells of the 384-well plate at 2.5 μL/well. After incubation for 10 min at 25° C., 10 μM of ATP and 0.1 μg/μL of an enzyme reaction substrate, myelin basic protein MBP (purchased from Signal Chem, Cat. No.: M42-51N) were added at 2.5 μL/well, and reacted at 25° C. for 60 minutes. After the reaction was completed, the kinase activity assay was performed using the ADP-Glo™ kinase assay kit (purchased from Promega, Cat. No.: V9102) according to the manufacture's instruction, i.e., 10 μL of ADP-Glo reaction reagent was first added and reacted at 25° C. for 40 minutes, 10 μL of the reaction mixture was taken and mixed with 10 μL of ADP-Glo detection reagent, and reacted at 25° C. for 30 minutes. The kinase activity was then detected, and the IC50 values of the test drugs were calculated.
# Sequence of IRAK4 kinase (Q9NWZ3 whole entry): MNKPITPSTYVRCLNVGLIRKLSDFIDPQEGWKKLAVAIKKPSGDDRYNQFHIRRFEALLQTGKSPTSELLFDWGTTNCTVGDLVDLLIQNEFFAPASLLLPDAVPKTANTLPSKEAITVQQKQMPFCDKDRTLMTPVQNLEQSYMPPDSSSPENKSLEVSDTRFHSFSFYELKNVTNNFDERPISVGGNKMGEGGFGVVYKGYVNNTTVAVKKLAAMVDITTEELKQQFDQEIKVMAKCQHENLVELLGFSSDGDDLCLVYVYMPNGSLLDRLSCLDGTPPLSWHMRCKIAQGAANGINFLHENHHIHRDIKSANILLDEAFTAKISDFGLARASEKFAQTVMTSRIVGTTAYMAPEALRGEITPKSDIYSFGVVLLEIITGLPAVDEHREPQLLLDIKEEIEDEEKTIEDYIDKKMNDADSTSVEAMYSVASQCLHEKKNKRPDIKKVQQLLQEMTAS
row,IC50,Compound
1,100 to 1000 nM,Cn1cc(-n2ccc3nc(Nc4cc(C(=O)N5CCSCC5)cs4)nc(O[C@H]4CCOC4)c32)cn1 [Example 153]
2,≤ 100 nM,Cn1cc(-n2ccc3nc(Nc4cc(C(=O)N5CCS(=O)(=O)CC5)cs4)nc(O[C@H]4CCOC4)c32)cn1 [Example 154]
3,≤ 100 nM,CNC(=O)c1cc(Nc2nc(OCCOC)c3c(ccn3-c3cnn(C)c3)n2)cs1 [Example 155]
4,≤ 100 nM,CCNC(=O)c1cc(Nc2nc(OCCOC)c3c(ccn3-c3cnn(C)c3)n2)cs1 [Example 156]
5,≤ 100 nM,CNC(=O)c1cc(Nc2nc(O[C@@H]3CCOC3)c3c(ccn3-c3cnn(C)c3)n2)cs1 [Example 157]
6,≤ 100 nM,CCNC(=O)c1cc(Nc2nc(O[C@@H]3CCOC3)c3c(ccn3-c3cnn(C)c3)n2)cs1 [Example 158]
7,≤ 100 nM,CNC(=O)c1cc(Nc2nc(O[C@H]3CCOC3)c3c(ccn3-c3cnn(C)c3)n2)cs1 [Example 159]
8,≤ 100 nM,CCNC(=O)c1cc(Nc2nc(O[C@H]3CCOC3)c3c(ccn3-c3cnn(C)c3)n2)cs1 [Example 160]
9,≤ 100 nM,Cn1cc(-n2ccc3nc(Nc4csc(C(=O)NCCF)c4)nc(O[C@H]4CCOC4)c32)cn1 [Example 161]
10,≤ 100 nM,CN1CCC(NC(=O)c2cc(Nc3nc(O[C@H]4CCOC4)c4c(ccn4-c4cnn(C)c4)n3)cs2)CC1 [Example 162]
11,≤ 100 nM,CN(C)C(=O)c1cc(Nc2nc(O[C@H]3CCOC3)c3c(ccn3-c3cnn(C)c3)n2)cs1 [Example 163]
12,100 to 1000 nM,CNC(=O)c1ccc(Nc2nc(O[C@H]3CCOC3)c3c(ccn3-c3cnn(C)c3)n2)s1 [Example 164]
13,1000 to 10000 nM,CNC(=O)c1csc(Nc2nc(O[C@H]3CCOC3)c3c(ccn3-c3cnn(C)c3)n2)n1 [Example 165]
14,≤ 100 nM,CNC(=O)c1cc(Nc2nc(O[C@H]3CCOC3)c3c(ccn3-c3cnn(C)c3)n2)sn1 [Example 166]
15,≤ 100 nM,CNC(=O)c1csc(Nc2nc(OC3CCOCC3)c3c(ccn3-c3cnn(C)c3)n2)c1 [Example 167]
16,≤ 100 nM,CCNC(=O)c1csc(Nc2nc(OC3CCOCC3)c3c(ccn3-c3cnn(C)c3)n2)c1 [Example 168]
17,≤ 100 nM,Cn1cc(-n2ccc3nc(Nc4cc(C(=O)NCCF)cs4)nc(OC4CCOCC4)c32)cn1 [Example 169]
18,≤ 100 nM,Cn1cc(-n2ccc3nc(Nc4cc(C(=O)NCC(F)F)cs4)nc(OC4CCOCC4)c32)cn1 [Example 170]
19,≤ 100 nM,CN(C)C(=O)c1csc(Nc2nc(OC3CCOCC3)c3c(ccn3-c3cnn(C)c3)n2)c1 [Example 171]
20,≤ 100 nM,CNC(=O)c1cc(Nc2nc(OC3CCOCC3)c3c(ccn3-c3cnn(C)c3)n2)cs1 [Example 172]
21,≤ 100 nM,CCNC(=O)c1cc(Nc2nc(OC3CCOCC3)c3c(ccn3-c3cnn(C)c3)n2)cs1 [Example 173]
22,100 to 1000 nM,CN(C)C(=O)c1cc(Nc2nc(OC3CCOCC3)c3c(ccn3-c3cnn(C)c3)n2)cs1 [Example 174]
23,100 to 1000 nM,Cn1cc(-n2ccc3nc(Nc4cc5n(c4)CCNC5=O)nc(OC4CCOCC4)c32)cn1 [Example 175]

# The next lines start with the compound.
row,Compound,IC50
1,Cc1cc(Nc2nc(O[C@H]3CCOC3)c3c(ccn3-c3cnn(C)c3)n2)sn1 [Example 64],≤ 100 nM
2,Cc1cc(Nc2nc(OC3CCOCC3)c3c(ccn3-c3cnn(C)c3)n2)sn1 [Example 74],≤ 100 nM
3,Cn1cc(-n2ccc3nc(Nc4cc(C(N)=O)cs4)nc(O[C@H]4CCOC4)c32)cn1 [Example 132],≤ 100 nM
4,CNC(=O)c1csc(Nc2nc(O[C@H]3CCOC3)c3c(ccn3-c3cnn(C)c3)n2)c1 [Example 133],≤ 100 nM
5,CCNC(=O)c1csc(Nc2nc(O[C@H]3CCOC3)c3c(ccn3-c3cnn(C)c3)n2)c1 [Example 134],≤ 100 nM
6,CCCNC(=O)c1csc(Nc2nc(O[C@H]3CCOC3)c3c(ccn3-c3cnn(C)c3)n2)c1 [Example 135],100 to 1000 nM
7,CC(C)NC(=O)c1csc(Nc2nc(O[C@H]3CCOC3)c3c(ccn3-c3cnn(C)c3)n2)c1 [Example 136],≤ 100 nM
8,Cn1cc(-n2ccc3nc(Nc4cc(C(=O)NCCF)cs4)nc(O[C@H]4CCOC4)c32)cn1 [Example 137],≤ 100 nM
9,Cn1cc(-n2ccc3nc(Nc4cc(C(=O)NCC(F)(F)F)cs4)nc(O[C@H]4CCOC4)c32)cn1 [Example 138],≤ 100 nM
10,COCCNC(=O)c1csc(Nc2nc(O[C@H]3CCOC3)c3c(ccn3-c3cnn(C)c3)n2)c1 [Example 139],≤ 100 nM
11,Cn1cc(-n2ccc3nc(Nc4cc(C(=O)NCC5CCOCC5)cs4)nc(O[C@H]4CCOC4)c32)cn1 [Example 140],≤ 100 nM
12,CN1CCC(CNC(=O)c2csc(Nc3nc(O[C@H]4CCOC4)c4c(ccn4-c4cnn(C)c4)n3)c2)CC1 [Example 141],≤ 100 nM
13,Cn1cc(-n2ccc3nc(Nc4cc(C(=O)NCc5cccs5)cs4)nc(O[C@H]4CCOC4)c32)cn1 [Example 142],100 to 1000 nM
14,Cn1cc(-n2ccc3nc(Nc4cc(C(=O)NC5CC5)cs4)nc(O[C@H]4CCOC4)c32)cn1 [Example 143],≤ 100 nM
15,Cn1cc(-n2ccc3nc(Nc4cc(C(=O)NC5CCCCC5)cs4)nc(O[C@H]4CCOC4)c32)cn1 [Example 144],100 to 1000 nM
16,CN1CCC(NC(=O)c2csc(Nc3nc(O[C@H]4CCOC4)c4c(ccn4-c4cnn(C)c4)n3)c2)CC1 [Example 145],≤ 100 nM
17,Cn1cc(-n2ccc3nc(Nc4cc(C(=O)N[C@@H]5CCOC5)cs4)nc(O[C@H]4CCOC4)c32)cn1 [Example 146],≤ 100 nM
18,Cn1cc(-n2ccc3nc(Nc4cc(C(=O)N[C@H]5CCOC5)cs4)nc(O[C@H]4CCOC4)c32)cn1 [Example 147],≤ 100 nM
19,Cn1cc(-n2ccc3nc(Nc4cc(C(=O)NC5CCOCC5)cs4)nc(O[C@H]4CCOC4)c32)cn1 [Example 148],≤ 100 nM
20,CN(C)C(=O)c1csc(Nc2nc(O[C@H]3CCOC3)c3c(ccn3-c3cnn(C)c3)n2)c1 [Example 149],≤ 100 nM
21,Cn1cc(-n2ccc3nc(Nc4cc(C(=O)N5CCCCC5)cs4)nc(O[C@H]4CCOC4)c32)cn1 [Example 150],≤ 100 nM
22,CN1CCN(C(=O)c2csc(Nc3nc(O[C@H]4CCOC4)c4c(ccn4-c4cnn(C)c4)n3)c2)CC1 [Example 151],≤ 100 nM
23,Cn1cc(-n2ccc3nc(Nc4cc(C(=O)N5CCOCC5)cs4)nc(O[C@H]4CCOC4)c32)cn1 [Example 152],≤ 100 nM

# Test system: LPS-induced TNF-α secretion in THP-1 cells
# Experiment: LPS-induced TNF-α secretion assay in THP-1 cells
# Assay type: cell-based
# Conditions: Homo sapiens, 24 hours, TNF-α ELISA
# Description: The compound of Example 133 and the compound of Example 134 of the invention were tested in LPS-induced TNF-α secretion assay in THP-1 cells. Human THP-1 cells (purchased from ATCC, Cat. No.: TIB-202) were cultured in RPMI-1640 medium (purchased from Gibco, Cat. No.: 22440) containing 10% fetal bovine serum (purchased from Gibco, Cat. No.: 10099-141) and 0.05 mM of 2-mercaptoethanol (purchased from Gibco, Cat. No.: 21985). The THP-1 cells in logarithmic growth phase were seeded in a 96-well plate at 2×10^5 cells/well/100 μL. The test samples were diluted with RMPI-1640 medium to 4 folds of the final concentration (5-fold dilutions starting from 10 μM, setting 6 drug concentrations, and testing in replicate wells at each concentration). The diluted test samples were added to the test wells seeded with cells at 50 μL/well, and RMPI-1640 medium (50 μL) was separately added to positive control and negative control wells. The 96-well plate was placed in the incubator at 37° C., 5% CO2 and pre-incubated for 2 hours. […] After incubation in the incubator at 37° C., 5% CO2 for 24 hours, the cell culture supernatant was taken and determined for the content of TNF-α in the supernatant using a human TNF-α ELISA kit (purchased from DKW, Cat. No.: 12-1720-096).
row,IC50,Compound
1,161 nM,CNC(=O)c1csc(Nc2nc(O[C@H]3CCOC3)c3c(ccn3-c3cnn(C)c3)n2)c1 [Example 133]
2,311 nM,CCNC(=O)c1csc(Nc2nc(O[C@H]3CCOC3)c3c(ccn3-c3cnn(C)c3)n2)c1 [Example 134]

# Test system: TMD-8 cells
# Experiment: TMD-8 cell growth inhibition assay
# Assay type: cell-based
# Conditions: Homo sapiens, TMD8, 96 hours, CCK-8
# Description: The compound of Example 64 and the compound of Example 74 of the invention were tested in TMD-8 cell growth inhibition assay. TMD-8 cells (available from Korea Hanmi Research Center) were cultured in RMPI-1640 medium (purchased from Gibco, Cat. No.: 22440) containing 10% fetal bovine serum (purchased from Gibco, Cat. No.: 10099-141). The TMD-8 cells in logarithmic growth phase were seeded in a 96-well plate at 20,000 cells/well/100 μL, and RMPI-1640 medium (100 μL) was added into blank control wells. The test samples were diluted with RMPI-1640 medium to 2 folds of the final concentration (10-fold dilutions starting from 10 μM, setting 6 drug concentrations, and testing in replicate wells at each concentration). The diluted test samples were added to test wells seeded with cells at 100 μL/well, and RMPI-1640 medium (100 μL) was separately added to the positive control and the blank control wells. The 96-well plate was placed in the incubator and reacted at 37° C., 5% CO2 for 96 hours. After the reaction was completed, the 96-well plate was taken from the incubator and to each well was added CCK-8 (100 μL) (purchased from DOJINDO, Cat. No.: CK04-11). Then the 96-well plate was put back to the incubator and incubated for another 2 hours.
row,Compound,IC50
1,Cc1cc(Nc2nc(O[C@H]3CCOC3)c3c(ccn3-c3cnn(C)c3)n2)sn1 [Example 64],184 nM
2,Cc1cc(Nc2nc(OC3CCOCC3)c3c(ccn3-c3cnn(C)c3)n2)sn1 [Example 74],479 nM
